IC50 data for 20 molecules are collected here from patent publication US20090264471A1, “Compounds, Compositions and Methods Comprising Triazole Derivatives” (Institute for OneWorld Health, priority 2008, published 2009).

Molecules are shown by their SMILES.

For this test, the target named is T1, CFTR (Homo sapiens, UniProt P13569).
T1 construct: results in the phosphorylation and opening of CFTR anion channels; host or cells: Human colonic T84 cells
T1 sequence (P13569 whole entry): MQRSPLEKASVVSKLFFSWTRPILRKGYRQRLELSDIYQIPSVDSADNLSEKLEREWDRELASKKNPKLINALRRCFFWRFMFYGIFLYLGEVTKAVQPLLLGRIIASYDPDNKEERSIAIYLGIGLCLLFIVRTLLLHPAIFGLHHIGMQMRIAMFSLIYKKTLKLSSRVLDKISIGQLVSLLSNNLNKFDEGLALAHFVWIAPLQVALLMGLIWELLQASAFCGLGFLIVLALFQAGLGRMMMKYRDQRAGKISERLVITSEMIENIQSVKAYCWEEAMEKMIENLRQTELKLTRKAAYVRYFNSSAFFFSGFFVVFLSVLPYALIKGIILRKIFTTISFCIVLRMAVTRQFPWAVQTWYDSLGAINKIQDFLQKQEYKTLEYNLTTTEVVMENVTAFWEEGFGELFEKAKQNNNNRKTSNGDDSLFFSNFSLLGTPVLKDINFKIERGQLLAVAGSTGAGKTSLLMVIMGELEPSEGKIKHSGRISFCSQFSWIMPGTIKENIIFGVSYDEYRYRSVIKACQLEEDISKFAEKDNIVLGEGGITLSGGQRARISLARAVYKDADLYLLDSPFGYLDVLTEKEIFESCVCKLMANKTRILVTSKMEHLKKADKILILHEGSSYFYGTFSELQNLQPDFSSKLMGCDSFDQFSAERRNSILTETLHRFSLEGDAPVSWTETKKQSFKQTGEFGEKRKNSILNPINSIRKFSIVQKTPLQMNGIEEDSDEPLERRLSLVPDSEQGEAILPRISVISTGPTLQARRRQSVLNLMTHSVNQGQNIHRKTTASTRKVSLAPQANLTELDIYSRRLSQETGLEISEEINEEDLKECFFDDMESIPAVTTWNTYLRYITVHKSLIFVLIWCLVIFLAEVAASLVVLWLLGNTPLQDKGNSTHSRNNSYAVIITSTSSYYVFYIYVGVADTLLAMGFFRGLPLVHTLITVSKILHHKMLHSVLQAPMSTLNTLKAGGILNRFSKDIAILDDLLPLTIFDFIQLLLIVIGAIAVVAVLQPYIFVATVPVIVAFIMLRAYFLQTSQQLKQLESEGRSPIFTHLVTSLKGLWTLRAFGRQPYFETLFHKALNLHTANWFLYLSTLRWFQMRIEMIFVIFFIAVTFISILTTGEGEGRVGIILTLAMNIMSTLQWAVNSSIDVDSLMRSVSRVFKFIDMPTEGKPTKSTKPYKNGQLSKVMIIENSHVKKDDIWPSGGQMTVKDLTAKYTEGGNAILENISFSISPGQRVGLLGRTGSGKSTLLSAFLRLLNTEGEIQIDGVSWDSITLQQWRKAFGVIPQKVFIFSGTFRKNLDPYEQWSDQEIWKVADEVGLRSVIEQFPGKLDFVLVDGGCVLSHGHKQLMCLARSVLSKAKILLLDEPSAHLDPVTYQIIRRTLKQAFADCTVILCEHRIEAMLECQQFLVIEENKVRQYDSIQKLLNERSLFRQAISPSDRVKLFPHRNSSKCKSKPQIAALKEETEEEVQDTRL
Description: T84 assay (FLIPR membrane potential dye, forskolin/IBMX-stimulated CFTR channel activity). The note with it: human colonic T84 cells, average of at least 2 runs unless annotated n = 1. It is filed as cell-based. The procedure:
(§1) For example, Human colonic T84 cells can be acquired from the European Collection of Cell Cultures (ECACC) and grown in standard culture conditions as described by the supplier. On the day before assay 25,000 T84 cells per well are plated into standard black walled, clear bottom 384-well assay plates in standard growth medium consisting of DMEM:F12 with 10% FBS and incubated overnight. On the day of the assay the plates are washed using a standard assay buffer (HBSS with 10 mM Hepes) and incubated for 15 minutes in serum free cell culture medium before the addition of a commercially available membrane potential sensitive fluorescent dye (FLIPR Red membrane potential dye, Molecular Devices Corporation). T84 cells are incubated with the FLIPR Red membrane potential dye for 45 minutes in the presence and absence of test compound before being transferred to a commercially available fluorescence imaging plate reader (FLIPR384, Molecular Devices Corporation). Fluorescence levels are monitored continuously every second for 150 seconds; after an initial 10 second baseline, CFTR channel activity is stimulated through the addition of 10 μM forskolin in the presence of 100 μM of the phosphodiesterase inhibitor iso-butyl-methylxanthine (IBMX). Addition of the forskolin leads to the activation of intracellular adenylyl cylase 1, elevating cAMP levels and results in the phosphorylation and opening of CFTR anion channels. CFTR channel opening causes chloride ion efflux and subsequent depolarization of the cells, which is measured by an increase in fluorescence. CFTR inihibitor compounds prevent cell depolarization and the associated increase in fluorescence.
as §1, with “Human colonic” for “For example, Human colonic”, “T84 cells are acquired from” for “T84 cells can be acquired from”, “(ECACC) and are grown in” for “(ECACC) and grown in”, “fluorescence. CFTR inhibitor compounds prevent” for “fluorescence. CFTR inihibitor compounds prevent”
Broadly, the IC50 is the concentration at which inhibition is half-maximal. Low values mean greater potency in that assay, high ones weaker potency in that assay. Turning to `O=C(c1nc(-c2cc(Br)c(O)c(Br)c2)n[nH]1)N1CCN(c2cccc(C(F)(F)F)c2)CC1` [Compound 79, (3-(3,5-dibromo-4-hydroxyphenyl)-1H-1,2,4-triazol-5-yl)(4-(3-(trifluoromethyl)phenyl)piperazin-1-yl)methanone], the IC50 was determined as 6.93 µM.
As for `CN(Cc1ccc(C(C)(C)C)cc1)C(=O)c1n[nH]c(-c2cc(Cl)c(O)c(Cl)c2)n1` [Compound 96, N-(4-tert-butylbenzyl)-5-(3,5-dichloro-4-hydroxyphenyl)-N-methyl-1H-1,2,4-triazole-3-carboxamide], the IC50 was determined as 7.53 µM.
As to `O=C(c1n[nH]c(-c2cc(Cl)c(O)c(Cl)c2)n1)N1CCC(Cc2ccccc2)CC1` [Compound 82, (4-benzylpiperidin-1-yl)(5-(3,5-dichloro-4-hydroxyphenyl)-1H-1,2,4-triazol-3-yl)methanone], the midpoint of inhibition, the IC50, lay at 7.05 µM.
In turn, `O=C(NC(c1ccccc1)c1ccccc1)c1nc(-c2cc(Br)c(O)c(Br)c2)n[nH]1` [Compound 78, N-benzhydryl-3-(3,5-dibromo-4-hydroxyphenyl)-1H-1,2,4-triazole-5-carboxamide] yielded a concentration for half-maximal inhibition (IC50) of 3.23 µM.
`O=C(NCc1cc(Cl)cc(Cl)c1)c1n[nH]c(-c2cc(Cl)c(O)c(Cl)c2)n1` [Compound 97, 5-(3,5-dichloro-4-hydroxyphenyl)-N-(3,5-dichlorobenzyl)-1H-1,2,4-triazole-3-carboxamide] showed an IC50 of 6.8 µM.
In turn, `CN(Cc1ccc(Cl)c(Cl)c1)C(=O)c1n[nH]c(-c2cc(Cl)c(O)c(Cl)c2)n1` [Compound 95, 5-(3,5-Dichloro-4-hydroxyphenyl)-N-(3,4-dichlorobenzyl)-N-methyl-1H-1,2,4-triazole-3-carboxamide] returned an IC50 of 7.92 µM.
On to `O=C(NC(c1ccccc1)c1ccccc1)c1n[nH]c(-c2cc(Cl)c(O)c(Cl)c2)n1` [Compound 88, N-benzhydryl-5-(3,5-dichloro-4-hydroxyphenyl)-1H-1,2,4-triazole-3-carboxamide], for which half-maximal inhibition (IC50) was put at 7.33 µM.
`O=C(NCc1cc(F)c(F)c(F)c1)c1n[nH]c(-c2cc(Cl)c(O)c(Cl)c2)n1` [Compound 89, 5-(3,5-dichloro-4-hydroxyphenyl)-N-(3,4,5-trifluorobenzyl)-1H-1,2,4-triazole-3-carboxamide] registered an IC50 of 5.25 µM.
The molecule `O=C(NCc1ccc(Oc2ccccc2)cc1)c1n[nH]c(-c2cc(Cl)c(O)c(Cl)c2)n1` [Compound 92, 5-(3,5-dichloro-4-hydroxyphenyl)-N-(4-phenoxybenzyl)-1H-1,2,4-triazole-3-carboxamide] came in with an IC50 of 3.28 µM.
Next, `O=C(NCc1ccc(C(F)(F)F)cc1)c1n[nH]c(-c2cc(Cl)c(O)c(Cl)c2)n1` [Compound 87, 5-(3,5-dichloro-4-hydroxyphenyl)-N-(4-(trifluoromethyl)benzyl)-1H-1,2,4-triazole-3-carboxamide]: 25.1 µM; `O=C(c1n[nH]c(-c2cc(Cl)c(O)c(Cl)c2)n1)N1CCN(c2cccc(C(F)(F)F)c2)CC1` [Compound 83, (5-(3,5-dichloro-4-hydroxyphenyl)-1H-1,2,4-triazol-3-yl)(4-(3-(trifluoromethyl)phenyl)piperazin-1-yl)methanone]: 6.9 µM.
`O=C(c1nc(-c2cc(Br)c(O)c(Br)c2)n[nH]1)N1CCC(Cc2ccccc2)CC1` [Compound 80, (4-Benzylpiperidin-1-yl)(3-(3,5-dibromo-4-hydroxyphenyl)-1H-1,2,4-triazol-5-yl)methanone] had an IC50 of 10.5 µM.
Under `O=C(NCc1ccc(Oc2ccccc2)cc1)c1nc(-c2cc(Br)c(O)c(Br)c2)n[nH]1` [Compound 81, 3-(3,5-dibromo-4-hydroxyphenyl)-N-(4-phenoxybenzyl)-1H-1,2,4-triazole-5-carboxamide] stands 1.51 µM; under `O=C(NCc1ccccc1C(F)(F)F)c1n[nH]c(-c2cc(Cl)c(O)c(Cl)c2)n1` [Compound 85, 5-(3,5-dichloro-4-hydroxyphenyl)-N-(2-(trifluoromethyl)benzyl)-1H-1,2,4-triazole-3-carboxamide], 18 µM.
On to `O=C(NCc1cccc(OC(F)(F)F)c1)c1n[nH]c(-c2cc(Cl)c(O)c(Cl)c2)n1` [Compound 86, 5-(3,5-dichloro-4-hydroxyphenyl)-N-(3-(trifluoromethoxy)benzyl)-1H-1,2,4-triazole-3-carboxamide], for which the IC50 is 22.2 µM.
The molecule `O=C(NCc1ccc(OC(F)(F)F)cc1)c1n[nH]c(-c2cc(Cl)c(O)c(Cl)c2)n1` [Compound 94, 5-(3,5-dichloro-4-hydroxyphenyl)-N-(4-(trifluoromethoxy)benzyl)-1H-1,2,4-triazole-3-carboxamide] came in with an IC50 of 9.11 µM.
Under `O=C(NCc1ccc(F)c(F)c1)c1n[nH]c(-c2cc(Cl)c(O)c(Cl)c2)n1` [Compound 84, 5-(3,5-dichloro-4-hydroxyphenyl)-N-(3,4-difluorobenzyl)-1H-1,2,4-triazole-3-carboxamide] stands 15.6 µM; under `CN(Cc1cccc(C(F)(F)F)c1)C(=O)c1n[nH]c(-c2cc(Cl)c(O)c(Cl)c2)n1` [Compound 90, 5-(3,5-dichloro-4-hydroxyphenyl)-N-methyl-N-(3-(trifluoromethyl)benzyl)-1H-1,2,4-triazole-3-carboxamide], 24.1 µM; under `O=C(NCc1ccc(Cl)c(Cl)c1)c1n[nH]c(-c2cc(Cl)c(O)c(Cl)c2)n1` [Compound 91, 5-(3,5-dichloro-4-hydroxyphenyl)-N-(3,4-dichlorobenzyl)-1H-1,2,4-triazole-3-carboxamide], 1.57 µM.
`CN(Cc1ccc(Cl)cc1)C(=O)c1n[nH]c(-c2cc(Cl)c(O)c(Cl)c2)n1` [Compound 93, N-(4-chlorobenzyl)-5-(3,5-dichloro-4-hydroxyphenyl)-N-methyl-1H-1,2,4-triazole-3-carboxamide] gave a 50% inhibitory concentration (IC50) of 25 µM.
